Results from patent US12370155B2, “Anticancer composition” (NOAHM INC., priority 2018, dated 2025).
Structures can show the parent of a compound that is named as a salt.

Assays:
Assay type in all cases: in vivo, BALB/c nude mice
[1] = tested on: 4T1 cells, breast cancer cells; assay: Tumor volume in 4T1 tumor-bearing mice; conditions: day 18 of administration; intraperitoneal; MET 250, 2DG 500, IP6 500, Ins 500 mg/kg (four-combination: IP6 250 + Ins 250 mg/kg); control 1486.8±67.0; mean±SD
Experimental: (§1) Five-week-old, female specific pathogen free BALB/c nude mice were purchased and used from Orient Bio Co., Ltd. After quarantine and adaptation for one week, healthy animals without weight loss were selected and used in the test. The test animals were raised in a breeding environment set at a temperature of 23±3° C., a relative humidity of 50±10%, the ventilation number of 10 to 15 times/hour, lighting time of 12 hours (08:00 to 20:00), and illuminance of 150 to 300 Lux. During a pre-test period, the test animals were allowed to freely consume solid feed for the test animals (Cargill Agripurina Co., Ltd.) and drinking water.
(§2) After an adaptation period for one week, in BALB/c nude mice, 4T1 cells (1×10 ^5 cells/mouse), breast cancer cells, were injected to the left breast adipose tissues of the test animals, and then the tumor tissues were visually observed. When the tumor tissue size of the test animals was about 100 mm ^3, the test animals were divided into 9 test groups based on a randomized block design. That is, the 9 test groups were classified into a control group, a MET group (MET 250 mg/kg), a 2DG group (2DG 500 mg/kg), an Ins group (Ins 500 mg/kg), a IP6 group (IP6 500 mg/kg), a MET+2DG group (MET 250 mg/kg+2DG 500 mg/kg), a MET+2DG+Ins group (MET 250 mg/kg+2DG 500 mg/kg+Ins 500 mg/kg), a MET+2DG+IP6 group (MET 250 mg/kg+2DG 500 mg/kg+IP6 500 mg/kg), a MET+2DG+IP6+Ins group (MET 250 mg/kg+2DG 500 mg/kg+IP6 250 mg/kg+Ins 250 mg/kg), and each test group used 10 test animals. The test substance was dissolved in distilled water and intraperitoneally administered at fixed time for 18 days.
The body weight of the test animal during the test period was measured at a fixed time once a week from the test substance administration date. A tumor volume was measured by using a digital caliper every three days, the length and width of the tumor were measured, and the tumor volume was calculated by substituting the following Equation. Tumor volume (mm^3)=(width^2×length)/2

[2] = tested on: 4T1 cells, breast cancer cells; assay: Incidence of lung metastasis in 4T1 tumor animal model; conditions: 10 animals per group; intraperitoneal; control 100%
Experimental: as §1, §2
(§3) After 14 days of administration of the test substance, the test animals were anesthetized using an anesthetic made by diluting tribromoethanol with tert-amyl alcohol and the blood was collected from the orbit. The blood was placed in a serum separate tube (Becton Dickinson) and left at room temperature for 30 minutes and centrifuged at 3,000 rpm for 20 minutes to isolate serum and the isolated serum was stored at −70° C. until analysis. After taking the blood from the test animals, the tumor was extracted and weighed. Tumors were weighed and some were fixed in 10% neutral buffered formalin (NBF, Sigma-Aldrich Co.) and embedded in paraffin to perform tissue immunostaining. The lung was fixed with a Bouin's solution (Sigma-Aldrich Co.), and the tumor nodule metastasized to the lung was observed and a lung metastasis rate was examined.

[3] = tested on: 4T1 cells, breast cancer cells; assay: Tumor weight in 4T1 tumor-bearing mice; conditions: day 19 of administration; intraperitoneal; MET 250, 2DG 500, IP6 500, Ins 500 mg/kg (four-combination: IP6 250 + Ins 250 mg/kg); control 1.244±0.22; mean±SD
Experimental: as §1, §2
as §3, with “After 14 days of administration of the test substance, the test animals were anesthetized using an anesthetic made by diluting tribromoethanol with tert-amyl alcohol and the blood was collected from the orbit.” left out, “After taking the blood from the test animals, the tumor was extracted and weighed.” left out

OCC1O[C@H](O)C[C@@H](O)[C@@H]1O (mixture of isomers) [2DG, 2-deoxy-D-glucose]
tumor volume [1]: 1350.3±55.2 mm^3
incidence of lung metastasis [2]: 100%
tumor weight [3]: 1.092 ± 0.18 g

O=P(O)(O)O[C@H]1[C@H](OP(=O)(O)O)[C@@H](OP(=O)(O)O)[C@H](OP(=O)(O)O)[C@@H](OP(=O)(O)O)[C@H]1OP(=O)(O)O [IP6, inositol hexaphosphate]
tumor volume [1]: 1108.5±66.3 mm^3
incidence of lung metastasis [2]: 90%
tumor weight [3]: 0.874 ± 0.18 g

O[C@H]1[C@H](O)[C@@H](O)[C@H](O)[C@@H](O)[C@H]1O [Ins, myo-inositol]
tumor volume [1]: 1190.1±67.3 mm^3
incidence of lung metastasis [2]: 90%
tumor weight [3]: 0.904 ± 0.20 g

CN(C)C(=N)NC(=N)N [MET, Metformin HCl]
tumor volume [1]: 1400.5±58.6 mm^3
incidence of lung metastasis [2]: 100%
tumor weight [3]: 1.134 ± 0.15 g
